Test [1] deals with Cln3^Δex7-8 mice. Kind of test: Life span assessment, oral trehalose. The class given is in vivo, mouse. As for the experimental part:
Cln3^Δex7-8 mice (stock no. 004685; Cln3^tm1.1Mem/J; CD-1 background)^32 were obtained from the Jackson Laboratory. Control (CD-1) and Cln3^Δex7-8 mice were housed 3-4 per cage in a room with a 12-h light/12-h dark cycle. Food and water were provided ad libitum. All mice used in this study were analyzed at 8 and 12 months of age and were littermates produced by crossing heterozygous Cln3^Δex7-8 mice. Only males were used for this analysis. Investigators were blinded when analyzing the data, and no randomization was necessary. No data were excluded from this study.
Trehalose (Swanson) was dissolved in drinking water to a final concentration of 2% and changed twice a week. Trehalose-containing water was given to Cln3^Δex7-8 and WT mice by spontaneous oral administration starting at 21 days of age and continuing until the day the mice died naturally (life span assessment) or were sacrificed for other studies.

For test [2], the system named is Cln3^Δex7-8 mice. Kind of test: TEM counting of fingerprint profiles. The format is in vivo, mouse. As for the experimental part:
Mice were anaesthetized and perfused intracardially with saline solution followed by 2% formaldehyde+2.5% glutaraldehyde in 0.1M sodium cacodylate buffer (pH 7.4). Brains were removed and small pieces of cerebellum and cortex were collected, and further postfixed in 2% formaldehyde|o2.5% glutaraldehyde, 0.1M sodium cacodylate buffer (pH 7.4) for 24 h. One-hundred micrometer coronal sections were cut with a vibratome and fixed in 1% OsO4 in 0.1M cacodylate for 1 h, stained with uranyl acetate dehydrated and embedded in Eponate 812. Ultrathin sections at 60 nm were obtained on an RMC MT6000 ultramicrotome and examined with a Hitachi H7500 transmission electron microscope. Images were captured using a Gatan US1000 high-resolution digital camera and Digital Micrograph software (v1.82.366).

Test [3] has as its target T1, mTORC1 (Mus musculus, UniProt Q9JLN9).
T1 construct: 100 mM) for 24 h or left untreated; endogenous in cells; host or cells: wild-type and Tsc2-/- mouse embryonic fibroblasts
Kind of test: Immunoblot of mTORC1 substrates in WT and Tsc2-/- MEFs. The note with it: Tsc2-/- and control MEFs, trehalose 100 mM 24 h. The class given is cell-based. As for the experimental part:
(b) Quantification of TFEB subcellular localization (C, cytoplasmic; N, nuclear) after 24 h of trehalose treatment (Tre) or in untreated cells (UT). Scale bars in a, b is 40 μm. (c) Immunoblot analyses show expression levels of substrates downstream of mTORC1. Wild-type (WT) and TSC2 null MEF cells were treated with trehalose (Tre; 100 mM) for 24 h or left untreated. As controls, cells were treated with Torin 1 (300 nM) or rapamycin (300 nM) for 2 h before extracting the lysates. Phospho- and total S6K1 (P-S6K1 and T-S6K1), phospho- and total S6 (P-S6 and T-S6) and phospho- and total 4E-BP1 (P-4E-BP1 and T-4E-BP1) were detected as readouts of mTORC1 activity. […]
Brain tissue and cultured cells were collected and lysed in RIPA buffer (50 mM Tris-HCl, ph 7.4, 1% NP40, 0.5% Na-deoxycholate, 0.1% SDS, 150 mM NaCl, 2 mM EDTA and 50 mM NaF) including a cocktail of protease (Roche) and phosphatase (SIGMA) inhibitors. Protein concentrations were measured with the bicinchoninic acid protein assay kit (Pierce, Rockford, Ill.), using bovine serum albumin as standard. […] Western blot images were acquired by LAS 4000 (GE Healthcare) and quantified using ImageJ. […]
(In general: A western blot detects proteins with antibodies after separation by electrophoresis.)

Test [4] addresses T2, mTORC1 (Homo sapiens, UniProt P42345).
T2 construct: endogenous in cells; host or cells: HeLa
Kind of test: Immunoblot of mTORC1 substrates in HeLa cells. The format is cell-based. The note with it: trehalose 24 h or 48 h. As for the experimental part: FIG. 8. […] HeLa cells were treated with trehalose for 24 h or 48 h, or with rapamycin (600 nM, 16 h) or Torin1 (300 nM, 2 h) as controls for mTORC1 inhibition. […] GAPDH was used as a loading control.
Brain tissue and cultured cells were collected and lysed in RIPA buffer (50 mM Tris-HCl, ph 7.4, 1% NP40, 0.5% Na-deoxycholate, 0.1% SDS, 150 mM NaCl, 2 mM EDTA and 50 mM NaF) including a cocktail of protease (Roche) and phosphatase (SIGMA) inhibitors. Protein concentrations were measured with the bicinchoninic acid protein assay kit (Pierce, Rockford, Ill.), using bovine serum albumin as standard. Lysates were separated via SDS-polyacrylamide gel electrophoresis (PAGE) and then transferred to nitrocellulose membranes. Blots were incubated in blocking buffer (5%, w/v, dried skimmed milk in Tris-buffered saline, pH 7.4 and 0.2% Tween 20, TBST) followed by overnight incubation with appropriate antibodies diluted in blocking buffer (5% dry milk). Western blot images were acquired by LAS 4000 (GE Healthcare) and quantified using ImageJ. Images have been cropped for presentation.

The subject of test [5] is TFEB S211. The test is described as follows: TFEB S211 phosphorylation (Phospho(Ser)-14-3-3 binding motif immunoblot). The format is cell-based, human. The note with it: HeLa cells transfected with TFEB-Flag, trehalose 24 h. As for the experimental part:
FIG. 9. […] TFEB-Flag was immunoprecipitated from HeLa cells transfected with TFEB-Flag and treated with trehalose for 24 h or left untreated. Immunoblot analyses were performed using antibody against Phospho(Ser)-14-3-3 binding motif and control antibodies.

The test system of test [6] is lysosomal genes. The test is described as follows: Microarray expression analysis (gene ontology, GSEA) of fibroblasts. The class given is cell-based, human. As for the experimental part: Total RNA from control and JNCL fibroblasts with and without trehalose treatment (100 mM, 4 days) was used to prepare complementary DNA for hybridization to the Illumina Human HT-12 V4.0 array platform. Experiments were performed in triplicate. Expression analysis was performed at the Microarray Core and Cell and Regulatory Biology, University of Texas, Houston, Tex., USA. A […] was used as a threshold for significance for assessing differential gene expression. GSEA was performed as previously described^10,11. The cumulative distribution function was constructed by performing 1,000 random gene set membership assignments. A nominal P<0.01 and an FDR<10% were used as thresholds for significance of the ES. Gene ontology analysis was performed with the web tool DAVID (https://david.ncifcrf.gov/) using default parameters. Pathway co-expression analyses were performed as previously described^8,9, and Cytoscape was used to represent graphically the expression correlation data.

In test [7] the test system is TFE3. The test is described as follows: TFE3 nuclear translocation in HeLa cells. The note with it: HeLa cells transfected with TFE3-3×Flag. The class given is cell-based, human. The text has this:
FIG. 23. Pharmacological inhibition of AKT induces nuclear translocation of TFE3 and MITF. HeLa cells were transiently transfected with TFE3-3×Flag (a) and MITF-3×Flag (b) and analyzed by confocal microscopy. Scale bar is 10 μm.

Compound `OC[C@H]1O[C@H](O[C@H]2O[C@H](CO)[C@@H](O)[C@H](O)[C@H]2O)[C@H](O)[C@@H](O)[C@@H]1O` [trehalose, a-D-glucopyranosyl a-D-glucopyranoside] returned a median survival in test [1] (Cln3^Δex7-8 mice, 2% trehalose in drinking water from 21 days of age, untreated 454 days) of 522 days. Besides, the maximum life span in test [1] (Cln3^Δex7-8 mice, oral trehalose, untreated 544 days) was 699 days. Further, the “increase of maximum life span” value in test [1] (treated vs untreated Cln3^Δex7-8 mice) amounted to 28%. Also, the “increase of median survival” value in test [1] (treated vs untreated Cln3^Δex7-8 mice, log-rank P=0.00566) is given as 15%. Moreover, the “number of fingerprint profiles” value is given as “significantly reduced the number of fingerprint profiles” in test [2] (Purkinje cells, P=0.047) and “significantly reduced the number of fingerprint profiles” in test [2] (cortical neurons, P=0.017). Also, the mTORC1 signalling result in test [3] is recorded as “does not alter mTORC1 signalling”. The “phosphorylation state of mTORC1 substrates” value in test [4] is given as “no changes in their phosphorylation state”. Also, the “phosphorylation of TFEB S211” value in test [5] is listed as “does not modify phosphorylation of TFEB S211”. In addition, the “GSEA enrichment score, TFEB direct targets with a known role in lysosomal metabolism” value in test [6] (control fibroblasts, P<0.0001) is on record as 0.82. In addition, in test [6] (control fibroblasts, P<0.0001), the “GSEA enrichment score, lysosomal genes” value came out at 0.67. The “gene ontology fold enrichment of lysosomal metabolism genes” value in test [6] (genes with at least twofold change, JNCL and control fibroblasts, trehalose 100 mM 4 days) is recorded as more than 5.

For `Cl.NC1(c2ccc(-c3nc4ccn5c(=O)[nH]nc5c4cc3-c3ccccc3)cc2)CCC1` [MK2206, 8-[4-(1-aminocyclobutyl)phenyl]-9-phenyl-1,2,4-triazolo[3,4-f][1,6]naphthyridin-3(2H)-one], the TFE3 nuclear translocation result in test [7] is recorded as “promoted nuclear translocation of these two factors”.
